Target: SMYD2 (Homo sapiens (Human), UniProt Q9NRG4)
Test: SMYD2 biochemical assay (SMYD2 enzyme assay on peptide substrate, 3H-SAM Flashplate)
Conditions: read-out: SMYD2 Biochem IC50; IC50 values are an average of n = 1 to n = 50

Sequence of SMYD2 (Q9NRG4 whole entry): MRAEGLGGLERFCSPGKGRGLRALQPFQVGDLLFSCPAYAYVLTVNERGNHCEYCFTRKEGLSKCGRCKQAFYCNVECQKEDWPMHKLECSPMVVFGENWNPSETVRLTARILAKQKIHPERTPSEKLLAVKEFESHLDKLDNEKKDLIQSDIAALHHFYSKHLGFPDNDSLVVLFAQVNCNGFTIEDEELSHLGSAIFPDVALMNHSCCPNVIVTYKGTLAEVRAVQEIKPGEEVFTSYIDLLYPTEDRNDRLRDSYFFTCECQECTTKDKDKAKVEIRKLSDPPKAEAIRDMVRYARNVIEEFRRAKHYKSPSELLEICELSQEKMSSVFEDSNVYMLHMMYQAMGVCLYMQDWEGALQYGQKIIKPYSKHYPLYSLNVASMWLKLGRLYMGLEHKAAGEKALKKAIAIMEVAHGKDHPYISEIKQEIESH

SMILES	IC50 [nM]
O=C(NC1CN(Cc2ccc(OCc3ccncc3)cc2)C1)c1cn(C2CC2)nn1 [compound 828, 1-cyclopropyl-N-(1-{[4-(pyridin-4-ylmethoxy)phenyl]methyl}azetidin-3-yl)-1H-1,2,3-triazole-4-carboxamide]	1030
COCCOc1ccc(CN2CC(NC(=O)c3cn(C4CC4)nn3)C2)cc1 [compound 830, 1-cyclopropyl-N-(1-{[4-(2-methoxyethoxy)phenyl]methyl}azetidin-3-yl)-1H-1,2,3-triazole-4-carboxamide]	2070
CN(C)CCNC(=O)c1cn(C2CC2)nn1 [compound 834, 1-cyclopropyl-N-[2-(dimethylamino)ethyl]-1H-1,2,3-triazole-4-carboxamide]	> 50000
CC(NC(=O)c1cc(C2CC2)cnn1)C1CNC1 (stereo not drawn) [compound 839, N-[1-(azetidin-3-yl)ethyl]-5-cyclopropylpyridazine-3-carboxamide]	18200
CC(NC(=O)c1cc(C2CC2)cnn1)C1CN(C(C)C)C1 (stereo not drawn) [compound 840, 5-cyclopropyl-N-{1-[1-(propan-2-yl)azetidin-3-yl]ethyl}pyridazine-3-carboxamide]	36800
COc1ccccc1[C@H](C)N1CC(NC(=O)c2cc(C3CC3)cnn2)C1 [compound 841, 5-cyclopropyl-N-{1-[(1S)-1-(2-methoxyphenyl)ethyl]azetidin-3-yl}pyridazine-3-carboxamide]	5010
O=C(NC1CN(Cc2ccc(OCc3cscn3)cc2)C1)c1cn(C2CC2)nn1 [compound 846, 1-cyclopropyl-N-(1-{[4-(1,3-thiazol-4-ylmethoxy)phenyl]methyl}azetidin-3-yl)-1H-1,2,3-triazole-4-carboxamide]	1090
O=C(NC1CN(Cc2ccc(OCc3ccccn3)cc2)C1)c1cn(C2CC2)nn1 [compound 849, 1-cyclopropyl-N-(1-{[4-(pyridin-2-ylmethoxy)phenyl]methyl}azetidin-3-yl)-1H-1,2,3-triazole-4-carboxamide]	2660
CC(c1ccc(OCCN(C)C)cc1)N1CC(NC(=O)c2cn(C3CC3)nn2)C1 (stereo not drawn) [compound 857, 1-cyclopropyl-N-[1-(1-{4-[2-(dimethylamino)ethoxy]phenyl}ethyl)azetidin-3-yl]-1H-1,2,3-triazole-4-carboxamide]	1980
CC(c1ccc(OCCCN(C)C)cc1)N1CC(NC(=O)c2cn(C3CC3)nn2)C1 (stereo not drawn) [compound 858, 1-cyclopropyl-N-[1-(1-{4-[3-(dimethylamino)propoxy]phenyl}ethyl)azetidin-3-yl]-1H-1,2,3-triazole-4-carboxamide]	4790
COc1ccc(Cl)cc1C(C)N1CC(NC(=O)c2cn(C3CC3)nn2)C1 (stereo not drawn) [compound 860, N-{1-[1-(5-chloro-2-methoxyphenyl)ethyl]azetidin-3-yl}-1-cyclopropyl-1H-1,2,3-triazole-4-carboxamide]	2790
CC(c1ccc(OCC(C)(C)C)cc1)N1CC(NC(=O)c2cn(C3CC3)nn2)C1 (stereo not drawn) [compound 864, 1-cyclopropyl-N-(1-{1-[4-(2,2-dimethylpropoxy)phenyl]ethyl}azetidin-3-yl)-1H-1,2,3-triazole-4-carboxamide]	3140
COc1cnc(C(C)N2CC(NC(=O)c3cn(C4CC4)nn3)C2)nc1 (stereo not drawn) [compound 865, 1-cyclopropyl-N-{1-[1-(5-methoxypyrimidin-2-yl)ethyl]azetidin-3-yl}-1H-1,2,3-triazole-4-carboxamide]	1640
CN(C)CCCNC(=O)c1cc(C2CC2)cnn1 [compound 867, 5-cyclopropyl-N-[3-(dimethylamino)propyl]pyridazine-3-carboxamide]	> 50000
CN(C)CCNC(=O)c1cc(C2CC2)cnn1 [compound 869, 5-cyclopropyl-N-[2-(dimethylamino)ethyl]pyridazine-3-carboxamide]	21100
C[C@H](c1ccccc1)N1CC(NC(=O)c2ncc(C3CC3)[nH]2)C1 [compound 915, 5-cyclopropyl-N-{1-[(1R)-1-phenylethyl]azetidin-3-yl}-1H-imidazole-2-carboxamide]	> 50000
CC(C)N1CCC(NC(=O)c2cc(C3CC3)cnn2)CC1 [compound 916, 5-cyclopropyl-N-[1-(propan-2-yl)piperidin-4-yl]pyridazine-3-carboxamide]	29100
CN1CCC(NC(=O)c2cc(C3CC3)cnn2)CC1 [compound 917, 5-cyclopropyl-N-(1-methylpiperidin-4-yl)pyridazine-3-carboxamide]	> 50000
CN1CCCC(NC(=O)c2cc(C3CC3)cnn2)C1 (stereo not drawn) [compound 918, 5-cyclopropyl-N-(1-methylpiperidin-3-yl)pyridazine-3-carboxamide]	> 50000
CC(C)N1CC(NC(=O)c2cn(C3CC3)cn2)C1 [compound 919, 1-cyclopropyl-N-(1-isopropylazetidin-3-yl)-1H-imidazole-4-carboxamide]	4600

Now those with a lower IC50, led by results:

IC50 [nM]	SMILES
713	CC(c1ccc(OCC(=O)N2CCOCC2)cc1)N1CC(NC(=O)c2cn(C3CC3)nn2)C1 (stereo not drawn) [compound 829, 1-cyclopropyl-N-[1-(1-(4-[2-(morpholin-4-yl)-2-oxoethoxy]phenyl}ethyl)azetidin-3-yl]-1H-1,2,3-triazole-4-carboxamide]
940	Cn1cc(CN2CC(NC(=O)c3cc(C4CC4)cnn3)C2)c(Cl)n1 [compound 833, N-{1-[(3-chloro-1-methyl-1H-pyrazol-4-yl)methyl]azetidin-3-yl}-5-cyclopropylpyridazine-3-carboxamide]
780	CNCc1cccc(C(C)N2CC(NC(=O)c3cn(C4CC4)nn3)C2)c1OC (stereo not drawn) [compound 835, 1-cyclopropyl-N-[1-(1-(2-methoxy-3-[(methylamino)methyl]phenyl}ethyl)azetidin-3-yl]-1H-1,2,3-triazole-4-carboxamide]
26.5	CC(c1ccc(OCc2ccccc2)cc1)N1CC(NC(=O)c2cc(C3CC3)cnn2)C1 (stereo not drawn) [compound 836, N-(1-{1-[4-(benzyloxy)phenyl]ethyl}azetidin-3-yl)-5-cyclopropylpyridazine-3-carboxamide]
340	CC[C@@H](c1cccc(Cl)c1)N1CC(NC(=O)c2cn(C3CC3)nn2)C1 [compound 837, N-{1-[(1S)-1-(3-chlorophenyl)propyl]azetidin-3-yl}-1-cyclopropyl-1H-1,2,3-triazole-4-carboxamide]
496	O=C(NC1CN(Cc2cn(CCc3ccccc3)cn2)C1)c1cc(C2CC2)cnn1 [compound 838, 5-cyclopropyl-N-(1-{[1-(2-phenylethyl)-1H-imidazol-4-yl]methyl}azetidin-3-yl)pyridazine-3-carboxamide]
189	COc1ccccc1[C@@H](C)N1CC(NC(=O)c2cc(C3CC3)cnn2)C1 [compound 842, 5-cyclopropyl-N-{1-[(1R)-1-(2-methoxyphenyl)ethyl]azetidin-3-yl}pyridazine-3-carboxamide]
88	COc1ccc(C(C)N2CC(NC(=O)c3cn(C4CC4)nn3)C2)c(Cl)c1 (stereo not drawn) [compound 845, N-{1-[1-(2-chloro-4-methoxyphenyl)ethyl]azetidin-3-yl}-1-cyclopropyl-1H-1,2,3-triazole-4-carboxamide]
72.1	COc1cccc(C(C)N2CC(NC(=O)c3cc(C4CC4)cnn3)C2)c1Cl (stereo not drawn) [compound 851, N-{1-[1-(2-chloro-3-methoxyphenyl)ethyl]azetidin-3-yl}-5-cyclopropylpyridazine-3-carboxamide]
776	CC(c1ccc(OCCc2ccccc2)cc1)N1CC(NC(=O)c2cn(C3CC3)nn2)C1 (stereo not drawn) [compound 853, 1-cyclopropyl-N-(1-{1-[4-(2-phenylethoxy)phenyl]ethyl}azetidin-3-yl)-1H-1,2,3-triazole-4-carboxamide]
965	CNC(=O)c1ccc(COc2ccc(C(C)N3CC(NC(=O)c4cn(C5CC5)nn4)C3)cc2)cc1 (stereo not drawn) [compound 854, 1-cyclopropyl-N-{1-[1-(4-{[4-(methylcarbamoyl)phenyl]methoxy}phenyl)ethyl]azetidin-3-yl}-1H-1,2,3-triazole-4-carboxamide]
159	COc1ccc(COc2ccc(C(C)N3CC(NC(=O)c4cn(C5CC5)nn4)C3)cc2)cc1 (stereo not drawn) [compound 855, 1-cyclopropyl-N-[1-(1-{4-[(4-methoxyphenyl)methoxy]phenyl}ethyl)azetidin-3-yl]-1H-1,2,3-triazole-4-carboxamide]
603	COc1ccc(C(C)N2CC(NC(=O)c3cc(C4CC4)cnn3)C2)cc1 (stereo not drawn) [compound 856, 5-cyclopropyl-N-{1-[1-(4-methoxyphenyl)ethyl]azetidin-3-yl}pyridazine-3-carboxamide]
160	CC(c1ccccc1Cl)N1CC(NC(=O)c2cn(C3CC3)nn2)C1 (stereo not drawn) [compound 859, N-{1-[1-(2-chlorophenyl)ethyl]azetidin-3-yl}-1-cyclopropyl-1H-1,2,3-triazole-4-carboxamide]
121	COc1cccc(C(C)N2CC(NC(=O)c3cc(C4CC4)cnn3)C2)c1OC (stereo not drawn) [compound 861, 5-cyclopropyl-N-{1-[1-(2,3-dimethoxyphenyl)ethyl]azetidin-3-yl}pyridazine-3-carboxamide]
334	CC(c1ccc(NCc2ccccc2)cc1)N1CC(NC(=O)c2cn(C3CC3)nn2)C1 (stereo not drawn) [compound 862, N-(1-{1-[4-(benzylamino)phenyl]ethyl}azetidin-3-yl)-1-cyclopropyl-1H-1,2,3-triazole-4-carboxamide]
355	CC[C@@H](c1cccc(Cl)c1)N1CC(NC(=O)c2cc(C3CC3)cnn2)C1 [compound 866, N-{1-[(1S)-1-(3-chlorophenyl)propyl]azetidin-3-yl}-5-cyclopropylpyridazine-3-carboxamide]
925	CC(c1ccc(OCc2ccccc2)c(Cl)c1)N1CC(NC(=O)c2cn(C3CC3)nn2)C1 (stereo not drawn) [compound 868, N-(1-{1-[4-(benzyloxy)-3-chlorophenyl]ethyl}azetidin-3-yl)-1-cyclopropyl-1H-1,2,3-triazole-4-carboxamide]
729	C[C@@H](c1ccccc1)N1CC(NC(=O)c2ncc(C3CC3)[nH]2)C1 [compound 914, 5-cyclopropyl-N-{1-[(1S)-1-phenylethyl]azetidin-3-yl}-1H-imidazole-2-carboxamide]
